Patent US12268669B2, “Pharmaceutical compositions and methods comprising a combination of a benzoxazole transthyretin stabilizer and an additional therapeutic agent” (Pfizer Inc., priority 2018, dated 2025)

How the values were obtained:
[1] = test system: TTR tetramers (WT or V122I); assay: WT and V122I TTR fibril formation inhibition assay (turbidity at 350 nm, acidic conditions, 72 h); format: biochemical; conditions: WT or V122I TTR 3.6 μM; compound 3.6 and 7.2 μM; pH 4.4 or 4.5; 72 h (values only in FIG. 1 and 2)
Description: Inhibition of WT and V122I TTR fibril formation under acidic conditions after 72 h-a sufficient period for aggregation to go to completion in the vehicle control (See Hurshman, A. R., White, J. T., Powers, E. T., Kelly, J. W.; Transthyretin aggregation under partially denaturing conditions is a downhill polymerization. Biochemistry 2004, 43, 7365-7381). Purified TTR tetramers (WT or V122I at 3.6 μM) were mixed with DMSO (vehicle control), Fx-1005 (positive control, See Razavi H, et al. Benzoxazoles as transthyretin amyloid fibril inhibitors: synthesis, evaluation, and mechanism of action. Angew Chem Int Ed Engl 2003, 42, 2758-2761), Fx-1003 (positive control) or PTC124 at final concentrations of 3.6 and 7.2 μM, and incubated for 30 minutes at 25° C. After adjusting the pH to 4.4 or 4.5, samples were incubated at 37° C. for 72 h. The turbidity was then measured at 350 nm using a UV-vis spectrometer. All endpoint amyloid fibril formation yields (which are slightly different for WT and V122I) were normalized for each allele to amyloidogenesis in the absence of stabilizer, assigned to be 100% fibril formation. Therefore, 5% fibril formation corresponds to a compound inhibiting 95% of TTR fibril formation after 72 h (See Miroy, G. J., et al. Inhibiting transthyretin amyloid fibril formation via protein stabilization. Proc Natl Acad Sci USA 1996, 93, 15051-15056). […]

[2] = test system: amyloidogenic light chains; conditions: cited from earlier work

For O=C(O)c1cccc(-c2noc(-c3ccccc3F)n2)c1 [Ataluren, 3-[5-(2-fluorophenyl)-1,2,4-oxadiazol-3-yl]benzoic acid], the “inhibition of TTR fibril formation” value [1] was “inhibit TTR fibril formation”.

For O=C(O[C@@H]1Cc2c(O)cc(O)cc2O[C@@H]1c1cc(O)c(O)c(O)c1)c1cc(O)c(O)c(O)c1, the “prevention of fibril formation” value ([2]; amyloidogenic light chains) is listed as “prevent fibril formation” and the “binding to amyloidogenic light chains” value [2] is listed as “bind to amyloidogenic light chains”.
